Results on 42 molecules are retold here after patent publication US10183936B2, “Hepatitis B core protein allosteric modulators” (priority 2014, dated 2019).

For one series, the system named is AD38 cells. The experiment in a line: Viability of AD38 cells (Promega CellTiter-Glo) at the end of compound treatment. Conditions: 10 μM compound, 6 days, luminescence normalized against DMSO control wells (controls being 100%). The series is classed as cell-based. The procedure: (§1) Example 56: Assay Measuring Activity of Compounds on Viral Production in and on Viability of AD38 Cells
(§2) AD38 cells were then re-suspended with 10 mL of Treatment Medium and counted. Wells of a collagen coated 96-well NUNC microtiter plate were seeded at 50,000/well in 180 μL of Treatment Medium, and 20 μL of in treatment media with either 10% DMSO (Control) or a 10× solution of compound in 10% DMSO was added. Plates were incubated for 6 days at 37° C.
At the end of compound treatment period cell viability was assessed using a Promega CellTiter-Glo protocol. All supernatant was removed the previously treated 96-well microtiter plate, and 50 μL Tetracycline-free treatment medium (DMEM/F12 (1:1), lx Pen/step (cat#: 30-002-CL, Mediatech, Inc), with 2% FBS, Tet-system approved (cat#: 631106, Clontech), and 1% DMSO was added back to each well. Another 50 μL of CellTiter-Glo reagent solution (Promega, G7573) was then added at room temperature and the contents mixed for 2 minutes on an orbital shaker to induce cell lysis. This was followed by incubation at room temperature for 10 minutes to stabilize the luminescent signal. The luminescence was recorded for 0.2 seconds per well on a Tecan multimode platereader (Infinite M1000 pro). The luminescent signal from each well was normalized against that of untreated (DMSO) control wells. All results were reported percent viability (with controls being 100%).

The test system of series [1] is HBV viral production in AD38 cells. The experiment in a line: Viral load production in AD38 cells by quantitative PCR of the HBV core sequence in supernatant. Conditions: Hepatitis B virus, 144 h; 10 μM compound, 6 days at 37° C., viral load in supernatant compared against DMSO control wells; read-out: AD38 Viral Load (CpAM/DMSO %) at 10 μM. The series is classed as cell-based. On the procedure: as §1, §2
Viral load production was assayed by quantitative PCR of the core sequence. Briefly, 5 μL of clarified supematant was added to a PCR reaction mixture that contained forward primers HBV-f 5′-CTGTGCCTTGGGTGGCTTT-3′, Reverse primers HBV-r 5′-[…]-3′ and Fluorescent TaqMan™ Probes HBV-probe 5′-FAM/AGCTCCAAA/ZEN/[…]/3IABkFQ-3′ in Quanta Biosciences PerfeCTa® qPCR Toughmix®, and was subsequently on an Applied Biosystems VIIA7 in a final volume of 20 μL. The PCR mixture was incubated at 45° C. for 5 minutes, then 95° C. for 10 min, followed by 40 cycles of 10 seconds at 95° C. and 20 seconds at 60° C. Viral load was quantitated against known standards by using ViiA™ 7 Software. Viral load in the supematant from wells with treated cells were compared against viral load in supernatant from DMSO control wells (≥3 per plate).

In the case of `O=C(NCCc1cncnc1)c1ccc2c(c1)NC(=O)c1c(F)cccc1S2` [Compound 1543], in the series on AD38 cells, the “AD38 Viability Normalized Result (CPAM/DMSO %) at 10 μM” value worked out at 90%. Also, the activity at 10 µM in series [1] came to 72%.
Taken in the same sequence, the figures for `Cc1nnc(CNC(=O)c2ccc3c(c2)NC(=O)c2ccccc2S3)o1` [Compound 1578] were 100% and 33%.
Taken in the same sequence, the figures for `O=C(NCCc1cncnc1)c1ccc2c(c1)NC(=O)c1ccccc1N2Cc1ccccc1` [Compound 1464] were 98% and 49%.
Taken in the same sequence, the figures for `O=C(NCCc1cccc(F)c1)c1ccc2c(c1)NC(=O)c1ccccc1S2` [Compound 1130] were 101% and 2%.
In the case of `O=C1Nc2cc(S(=O)(=O)NCCc3ccccc3)ccc2Sc2ccccc21` [Compound 1289, 11-oxo-N-phenethyl-10, 11-dihydrodibenzo [b,f] [1,4] thiazepine-8-sulfonamide], the “AD38 Viability Normalized Result (CPAM/DMSO %) at 10 μM” value in the series with AD38 cells was determined as 96%. Also, the activity at 10 µM in series [1] worked out at 40%.
Take `O=C(NCc1cncs1)c1ccc2c(c1)NC(=O)c1ccccc1S2(=O)=O` [Compound 1455]: the “AD38 Viability Normalized Result (CPAM/DMSO %) at 10 μM” value in the series with AD38 cells is 89%. Besides, the activity at 10 µM in series [1] was found to be 3%.
For `O=C(NCCc1cncnc1)c1ccc2c(c1)NC(=O)c1ccc(F)cc1S2` [Compound 1362], in the series with AD38 cells, the “AD38 Viability Normalized Result (CPAM/DMSO %) at 10 μM” value was found to be 98%. Besides, the activity at 10 µM in series [1] came out at 19%.
Taken in the same sequence, the figures for `O=C(NCCc1ccc(C(F)(F)F)cc1)c1ccc2c(c1)NC(=O)c1ccccc1S2` [Compound 1186] were 39% and 1%.
Taken in the same sequence, the figures for `COc1ccc2c(c1)Sc1ccc(C(=O)NCCC3CCCCC3)cc1NC2=O` [Compound 1271] were 100% and 6%.
Taken in the same sequence, the figures for `O=C(NCCc1cncs1)c1ccc2c(c1)NC(=O)c1ccccc1S2` [Compound 1247] were 103% and 8%.
On to `O=C(NCc1cncnc1)c1ccc2c(c1)NC(=O)c1ccc(F)cc1S2` [Compound 1347], for which the “AD38 Viability Normalized Result (CPAM/DMSO %) at 10 μM” value in the series with AD38 cells was found to be 94%. The activity at 10 µM in series [1] is 3%.
Taken in the same sequence, the figures for `O=C(Nc1nnco1)c1ccc2c(c1)NC(=O)c1cc(F)ccc1S2` [Compound 1537] were 98% and 36%.
As for `COCCNC(=O)c1ccc2c(c1)NC(=O)c1ccccc1S2` [Compound 1171], the “AD38 Viability Normalized Result (CPAM/DMSO %) at 10 μM” value in the series on AD38 cells came to 103%. The activity at 10 µM in series [1] amounted to 49%.
Consider `O=C1Nc2cc(S(=O)(=O)Nc3ccccc3)ccc2Sc2ccccc21` [Compound 1412], for which the “AD38 Viability Normalized Result (CPAM/DMSO %) at 10 μM” value with AD38 cells is recorded as 87%. Also, the activity at 10 µM in series [1] was found to be 48%.
Taken in the same sequence, the figures for `O=C(NCCc1cnco1)c1cc2c(cc1F)Sc1ccccc1C(=O)N2` [Compound 1557] were 86% and 54%.
Taken in the same sequence, the figures for `O=C(NCCc1ccccn1)c1ccc2c(c1)NC(=O)c1c(F)cccc1S2` [Compound 1471] were 97% and 16%.
In the case of `CCN1c2ccc(C(=O)NCCc3ccc(-c4ccccc4)cc3)cc2NC(=O)c2ccccc21` [Compound 1524], the “AD38 Viability Normalized Result (CPAM/DMSO %) at 10 μM” value in the series with AD38 cells is on record as 18%. Moreover, the activity at 10 µM in series [1] was found to be 2%.
Taken in the same sequence, the figures for `O=C(NCc1cnco1)c1ccc2c(c1)NC(=O)c1c(F)cccc1S2` [Compound 1542] were 95% and 34%.
Consider `CN1c2ccc(C(=O)NCCc3ccccn3)cc2NC(=O)c2ccccc21` [Compound 1498], for which, in the series with AD38 cells, the “AD38 Viability Normalized Result (CPAM/DMSO %) at 10 μM” value turned out to be 82%. For the same molecule, in series [1], the activity at 10 µM is 1%.
Take `CN1C(=O)c2ccccc2Sc2ccc(C(=O)NCCc3cccc(O)c3)cc21` [Compound 1133]: the “AD38 Viability Normalized Result (CPAM/DMSO %) at 10 μM” value in the series on AD38 cells was 99%. In series [1], the activity at 10 µM is 94%.
On the same counts, the results for `COc1ccc2c(c1)C(=O)Nc1cc(C(=O)NCCC3CCCCC3)ccc1S2` [Compound 1272] are 102% and 24%.
On the same counts, the results for `Cc1nnc(CCNC(=O)c2ccc3c(c2)NC(=O)c2ccccc2S3)[nH]1` [Compound 1583] are 121% and 41%.
Taken in the same sequence, the figures for `NC(=O)c1ccc2c(c1)Sc1ccc(C(=O)NCCc3ccccc3)cc1NC2=O` [Compound 1279] were 84% and 55%.
As for `O=C(NCCc1ccc(-c2ccccc2)cc1)c1ccc2c(c1)NC(=O)c1cc(F)ccc1S2` [Compound 1370], the “AD38 Viability Normalized Result (CPAM/DMSO %) at 10 μM” value in the series with AD38 cells amounted to 94%. Further, in series [1], the activity at 10 µM is 5%.
As for `O=C(NCCc1ccc(F)cc1)c1ccc2c(c1)NC(=O)c1ccccc1S2` [Compound 1113], the “AD38 Viability Normalized Result (CPAM/DMSO %) at 10 μM” value with AD38 cells is reported as 99%. Further, the activity at 10 µM in series [1] was 1%.
Taken in the same sequence, the figures for `CC(C)(C)c1ccc(CNC(=O)c2ccc3c(c2)NC(=O)c2ccccc2S3)cc1` [Compound 1165] were 82% and 5%.
Taken in the same sequence, the figures for `CCN1c2ccc(C(=O)NCCc3ccccn3)cc2NC(=O)c2ccccc21` [Compound 1522] were 82% and 1%.
Taken in the same sequence, the figures for `O=C(NCCc1cncnc1)c1ccc2c(c1)NC(=O)c1cc(F)ccc1S2` [Compound 1312] were 83% and 5%.
`O=C(NCc1cncs1)c1ccc2c(c1)NC(=O)c1ccccc1S2` [Compound 1245]: the “AD38 Viability Normalized Result (CPAM/DMSO %) at 10 μM” value with AD38 cells amounted to 101%. Further, the activity at 10 µM in series [1] worked out at 1%.
For `CN1c2ccc(C(=O)NCc3cnco3)cc2NC(=O)c2ccccc21` [Compound 1547], the “AD38 Viability Normalized Result (CPAM/DMSO %) at 10 μM” value in the series with AD38 cells was 90%. Further, in series [1], the activity at 10 µM came out at 16%.
Taken in the same sequence, the figures for `O=C1Nc2c(cc(F)c(C(=O)NCCc3cncnc3)c2F)Sc2ccccc21` [Compound 1562] were 89% and 25%.
Taken in the same sequence, the figures for `O=C(NCCC1CCCCC1)c1ccc2c(c1)Sc1ccccc1C(=O)N2` [Compound 1199] were 109% and 19%.
Taken in the same sequence, the figures for `O=C(NCCc1cccnc1)c1ccc2c(c1)NC(=O)c1cc(F)ccc1S2` [Compound 1376] were 63% and 3%.
On to `O=C(Nc1cncc(Cl)c1)c1ccc2c(c1)NC(=O)c1cc(F)ccc1S2` [Compound 1345], for which the “AD38 Viability Normalized Result (CPAM/DMSO %) at 10 μM” value with AD38 cells was determined as 93%. The activity at 10 µM in series [1] turned out to be 115%.
Take `O=C(NCc1ccccc1N1CCCC1)c1ccc2c(c1)NC(=O)c1ccccc1S2` [Compound 1240]: the “AD38 Viability Normalized Result (CPAM/DMSO %) at 10 μM” value with AD38 cells came to 92%. For the same molecule, in series [1], the activity at 10 µM is 26%.
`COc1ccccc1CCNC(=O)c1ccc2c(c1)NC(=O)c1ccccc1S2` [Compound 1127]: in the series with AD38 cells, the “AD38 Viability Normalized Result (CPAM/DMSO %) at 10 μM” value was determined as 94%. For the same molecule, the activity at 10 µM in series [1] is 22%.
On the same counts, the results for `O=C(NCc1cncnc1)c1cc2c(cc1F)Sc1ccccc1C(=O)N2` [Compound 1428] are 93% and 28%.
Taken in the same sequence, the figures for `O=C(NCCc1cncnc1)c1ccc2c(c1)NC(=O)c1ccccc1S2` [Compound 1290] were 94% and 33%.
Turning to `O=C(Nc1ccccc1F)c1ccc2c(c1)NC(=O)c1cc(F)ccc1S2` [Compound 1322], the “AD38 Viability Normalized Result (CPAM/DMSO %) at 10 μM” value in the series with AD38 cells was 94%. In series [1], the activity at 10 µM is 28%.
On the same counts, the results for `Cc1ccc2c(c1)Sc1ccc(C(=O)NCCC3CCCCC3)cc1NC2=O` [Compound 1273] are 96% and 6%.
For `O=C(NCc1cncnc1)c1ccc2c(c1)NC(=O)c1c(F)cccc1S2` [Compound 1540], the “AD38 Viability Normalized Result (CPAM/DMSO %) at 10 μM” value in the series with AD38 cells stood at 87%. The activity at 10 µM in series [1] amounted to 12%.
Taken in the same sequence, the figures for `O=C(NCc1ccccc1)c1ccc2c(c1)NC(=O)c1ccccc1S2(=O)=O` [Compound 1620] were 111% and 3%.
